Legend:
Experiment in all cases: relative viability (nuclei count vs DMSO), 5 days (fraction); higher = more cells survive
[1] = tested on: LU99A
How it was run: (§1)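 Five library-drug doses in √10 steps were combined with a fixed anchor-drug dose, or a single drug was given alone, by pin tool to lung cancer cell lines in 1536-well plates the day after seeding. Nuclei were stained and counted after 5 days. Relative viability is the nuclei count in treated wells over that in vehicle wells, taken as the median of duplicate plates.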

[2] = tested on: LC-2-ad
How it was run: as §1

[3] = tested on: UMC-11
How it was run: as §1

[4] = tested on: NCI-H1915
How it was run: as §1

[5] = tested on: HOP-62
How it was run: as §1

[6] = tested on: NCI-H1666
How it was run: as §1

[7] = tested on: HCC-78
How it was run: as §1

[8] = tested on: SK-LU-1
How it was run: as §1

[9] = tested on: NCI-H2085
How it was run: as §1

[10] = tested on: EPLC-272H
How it was run: as §1

[11] = tested on: COR-L 105
How it was run: as §1

[12] = tested on: NCI-H460
How it was run: as §1

[13] = tested on: A-427
How it was run: as §1

[14] = tested on: HCC-366
How it was run: as §1

[15] = tested on: NCI-H2009
How it was run: as §1

[16] = tested on: NCI-H1792
How it was run: as §1

[17] = tested on: LXF-289
How it was run: as §1

Question: What does the source list for `CC(=O)O[C@@]12CO[C@@H]1C[C@H](O)[C@@]1(C)C(=O)[C@H](O)C3=C(C)[C@@H](OC(=O)[C@H](O)[C@@H](NC(=O)OC(C)(C)C)c4ccccc4)C[C@@](O)([C@@H](OC(=O)c4ccccc4)[C@H]21)C3(C)C` [Docetaxel] + CC(C)C[C@H](NC(=O)[C@H](Cc1ccccc1)NC(=O)c1cnccn1)B(O)O [Bortezomib] (partner 0.002 µM)?
Answer: relative viability ([1]; first compound 0.0002 µM): 1.01; relative viability ([1]; first compound 0.000632 µM): 0.637; relative viability ([1]; first compound 0.002 µM): 0.545; relative viability ([1]; first compound 0.006325 µM): 0.282; relative viability ([1]; first compound 0.02 µM): 0.221; relative viability ([2]; first compound 0.0002 µM): 0.702; relative viability ([2]; first compound 0.002 µM): 0.125; relative viability ([2]; first compound 0.006325 µM): 0.116; relative viability ([2]; first compound 0.02 µM): 0.11; relative viability ([3]; first compound 0.0002 µM): 0.747; relative viability ([3]; first compound 0.000632 µM): 0.763; relative viability ([3]; first compound 0.002 µM): 0.162; relative viability ([3]; first compound 0.006325 µM): 0.197; relative viability ([3]; first compound 0.02 µM): 0.128; relative viability ([4]; first compound 0.0002 µM): 0.905; relative viability ([4]; first compound 0.000632 µM): 0.95; relative viability ([4]; first compound 0.002 µM): 0.577; relative viability ([4]; first compound 0.006325 µM): 0.147; relative viability ([4]; first compound 0.02 µM): 0.116; relative viability ([5]; first compound 0.0002 µM): 0.726; relative viability ([5]; first compound 0.000632 µM): 0.828; relative viability ([5]; first compound 0.02 µM): 0.128; relative viability ([6]; first compound 0.0002 µM): 0.582; relative viability ([6]; first compound 0.000632 µM): 0.452; relative viability ([6]; first compound 0.002 µM): 0.378; relative viability ([6]; first compound 0.006325 µM): 0.249; relative viability ([6]; first compound 0.02 µM): 0.205; relative viability ([7]; first compound 0.0002 µM): 0.581; relative viability ([7]; first compound 0.000632 µM): 0.524; relative viability ([7]; first compound 0.002 µM): 0.326; relative viability ([7]; first compound 0.006325 µM): 0.487; relative viability ([7]; first compound 0.02 µM): 0.27; relative viability ([8]; first compound 0.0002 µM): 0.951; relative viability ([8]; first compound 0.000632 µM): 0.392; relative viability ([8]; first compound 0.002 µM): 0.307; relative viability ([8]; first compound 0.006325 µM): 0.267; relative viability ([8]; first compound 0.02 µM): 0.208; relative viability ([9]; first compound 0.0002 µM): 0.882; relative viability ([9]; first compound 0.000632 µM): 1.06; relative viability ([9]; first compound 0.002 µM): 0.718; relative viability ([9]; first compound 0.006325 µM): 0.54; relative viability ([9]; first compound 0.02 µM): 0.46; relative viability ([10]; first compound 0.0002 µM): 0.761; relative viability ([10]; first compound 0.000632 µM): 0.506; relative viability ([10]; first compound 0.002 µM): 0.209; relative viability ([10]; first compound 0.006325 µM): 0.168; relative viability ([10]; first compound 0.02 µM): 0.0779; relative viability ([11]; first compound 0.0002 µM): 0.734; relative viability ([11]; first compound 0.000632 µM): 0.595; relative viability ([11]; first compound 0.002 µM): 0.423; relative viability ([11]; first compound 0.006325 µM): 0.304; relative viability ([11]; first compound 0.02 µM): 0.229; relative viability ([12]; first compound 0.0002 µM): 0.959; relative viability ([12]; first compound 0.000632 µM): 0.735; relative viability ([12]; first compound 0.002 µM): 0.0916; relative viability ([12]; first compound 0.006325 µM): 0.0162; relative viability ([12]; first compound 0.02 µM): 0.0121; relative viability ([13]; first compound 0.0002 µM): 0.949; relative viability ([13]; first compound 0.000632 µM): 0.964; relative viability ([13]; first compound 0.002 µM): 0.656; relative viability ([13]; first compound 0.006325 µM): 0.275; relative viability ([13]; first compound 0.02 µM): 0.141; relative viability ([14]; first compound 0.0002 µM): 1.07; relative viability ([14]; first compound 0.000632 µM): 0.267; relative viability ([14]; first compound 0.002 µM): 0.144; relative viability ([14]; first compound 0.006325 µM): 0.0171; relative viability ([15]; first compound 0.0002 µM): 0.99; relative viability ([15]; first compound 0.000632 µM): 1.01; relative viability ([15]; first compound 0.002 µM): 0.914; relative viability ([15]; first compound 0.006325 µM): 0.263; relative viability ([15]; first compound 0.02 µM): 0.178; relative viability ([16]; first compound 0.0002 µM): 0.951; relative viability ([16]; first compound 0.000632 µM): 0.82; relative viability ([16]; first compound 0.002 µM): 0.6; relative viability ([16]; first compound 0.02 µM): 0.12; relative viability ([17]; first compound 0.0002 µM): 0.995; relative viability ([17]; first compound 0.000632 µM): 0.81; relative viability ([17]; first compound 0.002 µM): 0.594; relative viability ([17]; first compound 0.006325 µM): 0.133; relative viability ([17]; first compound 0.02 µM): 0.0991

— the supplement of paper PMC10307832
